Test results reported in patent US20220031632A1, “NANOPARTICLE COMPOSITIONS AND USES THEREOF” (OP-T LLC, priority 2020, published 2022).
Entries after “also recorded” stand apart in the source; their conditions may differ. Where no end group is shown, it is not given here.

Columns and labels:
[1] = tested on: CD3+ T cells and antigen presenting cells (APC); assay: Fluorescent peptide binding to PBMCs from MS patients by flow cytometry; type: cell-based, human; conditions: fluorescenated peptides
Procedure: In some embodiments, the size (length—i.e. number of amino acids) of the peptide may matter for disease prevention capacity. […] In some embodiments, use of different length peptides may be advantageous in treatment of different diseases as each disease may be driven primarily by one cell type or another.
Peripheral blood mononuclear cells from MS patients were stained then gated on CD3^+ for T cells or on CD3^− for antigen presenting cells (APC) were analyzed for peptide binding levels. Different cells bind different peptides with different intensities as determined by flow cytometry. There were 24 subjects in each test.

ApoE−/− mice = assay: Glucose tolerance testing in ApoE-/- mice; type: in vivo, mouse; conditions: n=14
C57BL/6 mice = assay: EAE mouse model, daily clinical score; type: in vivo
Text: EAE was then induced and the mice started to show symptoms on day 10, which is standard for these mice under these conditions. This is further depicted in FIG. 11. On days 13, 20, and 27, the KGYY6 group of mice receive a boost of peptide, while the other group again received PBS via IV injection. […] By day 13, there was a statistically significant difference that lasted throughout the experiment. In FIG. 11—*—asterisks—denote p-value: *—one asterisk is <0.05; **—two asterisks is <0.01; ***—three asterisks is <0.001; and ****-four asterisks is <0.0001. This is a two-way ANOVA with Sidak's multiple comparisons test. Arrows in above lines in FIG. 11 represent days −3, −1, 13, 20, and 27, which correspond to days on which the mice received the KGYY6. Mice were disease scored daily in this study as described in more detail below. […]
All mice were monitored daily for disease and scored in the following manner: 0—no abnormalities; 0.5—clutching hind limbs; 1—limp tail or weak hind limbs and/or wobbly gait; 1.5—limp tail and clutching hind limbs; 2—limp tail and weak hind limbs and/or wobbly gait wherein the mouse supports itself and propels itself using hind limbs; 2.5—limp tail and weak hind limbs and/or wobbly gait wherein the mouse cannot support and propel itself using hind limbs, but the paws are moving. […]

T1D dogs = assay: Longstanding T1D domestic dogs treated with i.v. infusions of dog 15-mer peptide; type: in vivo; conditions: before first infusion vs several weeks after initiation
Procedure: Four longstanding T1D domestic dogs were treated with i.v. infusions of dog 15-mer peptide, twice in the first week then weekly thereafter. Levels of fructosamine were measured before the first infusion and several weeks after initiation of treatment.

NOD mice [2] = assay: Diabetes prevention in NOD mice treated with peptides; type: in vivo, mouse; conditions: for diabetes onset (blood glucose >250 mg/dl): NOD mice treated with different sizes of peptides, n=10
Procedure: (a) The amino acid sequence of mouse CD154 is depicted, with amino acids known to interact with CD40 shown in bold. A 15 amino acid sequence is highlighted in grey and aligned with the same motif in human CD154. A previously studied peptide is highlighted. (b) NOD mice were treated with different sizes of peptides, as indicated (n=10 in all groups). Mice were monitored for diabetes onset (blood glucose >250 mg/dl). Differences were significant by two-way ANOVA; p<0.0001.
FIG. 3 includes sub-parts FIGS. 3A and 3B. […] The percent of subjects that developed diabetes in the KGYY15 subjects was much lower, as compared with the RGD peptide and the scrambled peptide. KGYY15 diabetes prevention is sequence dependent, and several amino acid positions are critical for its function. (a) KGYY15-treated mice were compared with mice treated with a scrambled peptide or a peptide targeting the RGD region (sequences indicated above the graph). (b) KGYY15-treated mice were compared with mice treated with a 15-mer peptide series in which single amino acids, as indicated, were substituted for glycine. L137; Y144; T146; M147; N150; n=10 in all groups shown in (a) and (b), except for L137, where n=9. Differences were significant by two-way ANOVA; p<0.0001

NOD mice [3] = assay: Immunogenicity: serum antibodies to KGYY15 or sCD154 by western blot; type: in vivo, mouse; conditions: 1 mg/kg weekly for 7 weeks
Procedure: (§1) NOD mice were injected weekly for 7 weeks with 1 mg/kg of KGYY15. In FIG. 4A, serum was collected from injected or control mice and used, followed by anti-mouse-IgG secondary antibody, in western blots for detection of KGYY15 peptide or soluble CD154 (sCD154; KGYY15 and sCD154 sizes are indicated with arrows). […] As a standard, KGYY15-biotin was run and detected with streptavidin-HRP. Experiment was done twice, pooling serum from 2 and 3 mice in each experiment, respectively. In FIGS. 4B and 4C, sorted splenic APC from KGYY15 treated mice were loaded with KGYY15 or not. T cells from KGYY15 treated mice were CFSE labelled then exposed to the autologous APC (+/− KGYY15) and incubated for 5 days. […] Representative histogram of CFSE dilution: Black line—T cells alone; Grey tinted—T cells+APC alone; Dotted line—T cells+APC loaded with KGYY15. Graph depicts cumulative data (n=5 in each group).

NOD mice [4] = assay: Reversal of overt hyperglycemia in new onset diabetic NOD mice, daily KGYY15; type: in vivo, mouse
Procedure: FIG. 2, which includes FIG. 2A-2D, is based on a study of the use of KGYY15 to treat NOD mice. […] Immediately after diabetes onset (blood glucose >250 mg/dl; n=9), mice were treated daily with KGYY15 and blood glucose was monitored. […] FIG. 2C is a graph showing Islet insulitis scores in reversed and non-reversed mice: 0, no infiltration (black); 1, 25% infiltration (striped); 2, 50% infiltration (dark grey); 3, 75% infiltration (light grey); 4, 100% infiltration (white). FIG. 2D is a graph showing Islet insulin granulation scores: 0, less than 25% granulation; 1, 25-50% granulation; 2, 50-75% granulation; […], 75-100% granulated. Data is represented as the mean±SEM; ****p<0.0001 by two-tailed unpaired t test.

[5] = tested on: T cells from KGYY15 treated mice; assay: T cell proliferation (CFSE dilution) with autologous APC loaded with KGYY15; type: cell-based, mouse; conditions: APC +/- KGYY15, 5 days, n=5
Procedure: as §1

Q: How did the “binding to T cells compared with APCs” value [1] turn out when “15-mer: fluorescenated version of the 15-mer peptide used to stain PBMCs from MS patients (VLRWAPKGYYTISSN; also: fluorescent label)” was run?
A: bound better to T cells than APCs

Q: Which glucose tolerance (ApoE−/− mice) does the source give for AKKGYY [KGYY6] here?
A: statistically significant improvement

Q: And the insulin sensitivity (ApoE−/− mice)?
A: statistically significant improvement; also recorded: may improve

Q: And the “severity of EAE (disease course, clinical score)” value (C57BL/6 mice; i.v. pretreatment before EAE induction plus boosts, vs PBS control)?
A: significantly less severe; also recorded: ameliorates EAE; also recorded: significantly reduced the severity of the EAE symptoms

Q: And the “severity of EAE” value (C57BL/6 mice; no pretreatment, treatment delayed until visible disease symptoms)?
A: may significantly reduce the severity of EAE

Q: Which fructosamine levels (T1D dogs) does the source give for “VLRWA PKGYY TISSN (chain 1 VLRWAPKGYYTISSN; chain 2 VLRWAPKGYYTISSN) [Dog 15-mer peptide]” here?
A: significantly decreases fructosamine levels

Q: Which “diabetes onset (blood glucose >250 mg/dl)” value (NOD mice [2]) does the source give for “VLQWAKKGYYTMKSN (VLQWAKKGYYTMKSK) [KGYY15]” here?
A: prevent the onset of T1D

Q: And the “diabetes onset (blood glucose >250 mg/dl)” value (NOD mice [2]; listed as 15-mer CD154-derived peptide)?
A: prevents diabetes

Q: And the “percent of subjects that developed diabetes” value (NOD mice [2]; NOD mice, 35 weeks, compared with RGD peptide and scrambled peptide)?
A: much lower

Q: What about the “antibody production to the peptide” value (NOD mice [3]; serum western blot) of the same substance?
A: no antibodies to the peptide had been generated; also recorded: does not elicit antibody production

Q: What about the immunogenicity (NOD mice [3]; NOD mice, 1 mg/kg) of the same substance?
A: does not appear to be immunogenic

Q: And the “reversal of overt hyperglycemia” value (NOD mice [4]; NOD mice treated daily after diabetes onset, n=9)?
A: reverses overt hyperglycemia

Q: What about the “mice with reversed hyperglycemia” value (NOD mice [4]; new onset diabetic mice) of the same substance?
A: approximately 60%

Q: And the “T cell proliferation by CFSE dilution” value [5]?
A: no proliferation was detected

Q: How did the “binding to T cells compared with APCs” value [1] turn out when “6-mer: fluorescenated version of the 6-mer peptide used to stain PBMCs from MS patients (AKKGYY; also: fluorescent label)” was run?
A: stained both T cells and APCs equally well
